# Patent publication US20230365592A1 (Agios Pharmaceuticals, Inc., priority 2022, published 2023)
# Target: T1, human PAH with the R408W mutation (Homo sapiens, UniProt P00439, R408W)
# T1 construct: expressed in transfected cells
# T1 sequence (P00439 1-452 R408W): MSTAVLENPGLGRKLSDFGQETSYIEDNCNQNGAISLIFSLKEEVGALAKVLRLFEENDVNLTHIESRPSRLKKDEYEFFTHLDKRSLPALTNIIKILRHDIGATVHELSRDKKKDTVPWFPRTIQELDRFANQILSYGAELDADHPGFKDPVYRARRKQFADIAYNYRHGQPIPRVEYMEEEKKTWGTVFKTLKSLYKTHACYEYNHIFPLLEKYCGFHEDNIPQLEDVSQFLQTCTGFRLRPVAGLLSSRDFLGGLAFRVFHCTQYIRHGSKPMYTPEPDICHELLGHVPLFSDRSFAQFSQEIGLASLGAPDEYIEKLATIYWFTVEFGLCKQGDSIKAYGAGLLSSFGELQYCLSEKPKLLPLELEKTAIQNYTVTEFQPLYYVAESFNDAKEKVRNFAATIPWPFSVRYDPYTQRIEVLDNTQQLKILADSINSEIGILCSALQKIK
# Assay: Cell Based Phenylalanine Flux Assay;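 further: after compound treatment, cells received sepiapterin plus isotope-labelled Phenylalanine for 4 hours, then labelled Tyrosine in the medium was quantified, 10-point 2-fold dilution series run in duplicate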
# Conditions: A375 cells expressing R408W PAH; 24 hrs with compound, then 20 µM sepiapterin and 800 µM 13C9,15N-Phenylalanine for 4 hours; 13C-Tyrosine by LC-MS; average where tested multiple times; read-out: AC50
row,AC50 [nM],Compound
1,1000 to 5000,Cn1ncnc1C(=O)N1CCc2[nH]cnc2C1c1cc2ccccn2n1 (stereo not drawn)
2,> 5000,Nc1ccc(N2CCc3[nH]cnc3C2c2cc3ccccn3n2)nc1 (stereo not drawn)
3,1000 to 5000,O=C(C1CN(c2ccccn2)C1)N1CCc2[nH]cnc2C1c1cc2ccccn2n1 (stereo not drawn)
4,1000 to 5000,COc1cccn2nc(C3c4nc[nH]c4CCN3C(=O)c3nnc(-c4cnccn4)o3)cc12 (stereo not drawn)
5,1000 to 5000,c1cnnc(-c2nnc(N3CCc4[nH]cnc4C3c3cc4c(C5CC5)cccn4n3)o2)c1 (stereo not drawn)
6,1000 to 5000,"c1ccn2nc([C@H]3NCCc4ncn(-c5nnc(C6CC6)o5)c43)cc2c1 (single isomer, unassigned)"
7,1000 to 5000,Fc1ncccc1-c1nnc(N2CCc3[nH]cnc3C2c2cc3c(C4CC4)cccn3n2)o1 (stereo not drawn)
8,1000 to 5000,Cc1ccc2cc(C3c4nc[nH]c4CCN3C(=O)c3nnc(C(C)(C)O)o3)nn2c1 (stereo not drawn)
9,1000 to 5000,Cn1ccc(-c2nnc(C(=O)N3CCc4[nH]cnc4C3c3cc4cc(C(F)(F)F)ccn4n3)o2)n1 (stereo not drawn)

row,Compound,AC50 [nM]
1,"CC(C)(O)c1ncc(C(=O)N2CCc3[nH]cnc3[C@H]2c2cc3cccc(Cl)n3n2)o1 (single isomer, unassigned)",1000 to 5000
2,"Fc1cccn2nc([C@H]3c4nc[nH]c4CCN3c3nnc(-c4cccnc4)o3)cc12 (single isomer, unassigned)",> 5000

# Same assay, conditions: A375 cells expressing human PAH R408W; 24 hrs compound incubation; 13C-Tyrosine by LC-MS; average where tested multiple times; read-out: AC50
row,AC50 [nM],Compound
1,< 500,"Cc1cccn2nc([C@@H]3c4nc[nH]c4CCN3C(=O)C3CC3)cc12 [Example 2024, (S)-cyclopropyl(4-(4-methylpyrazolo[1,5-a]pyridin-2-yl)-1,4,6,7-tetrahydro-5H-imidazo[4,5-c]pyridin-5-yl)methanone]"
2,1000 to 5000,"Cn1cc(-c2ncc(C(=O)N3CCc4[nH]cnc4[C@H]3c3cc4c(C(F)(F)F)cccn4n3)o2)cn1 [Example 2506, (S)-(2-(1-methyl-1H-pyrazol-4-yl)oxazol-5-yl)(4-(4-(trifluoromethyl)pyrazolo[1,5-a]pyridin-2-yl)-1,4,6,7-tetrahydro-5H-imidazo[4,5-c]pyridin-5-yl)methanone]"
3,> 5000,"COc1ccc2c(C(=O)N3CCc4[nH]cnc4[C@@H]3c3cc4cccc(Cl)n4n3)cnn2c1 [Example 2465, (R)-(4-(7-chloropyrazolo[1,5-a]pyridin-2-yl)-6,7-dihydro-1H-imidazo[4,5-c]pyridin-5(4H)-yl)(6-methoxypyrazolo[1,5-a]pyridin-3-yl)methanone]"
4,1000 to 5000,"CC(C)(F)c1nnc(C(=O)N2CCc3[nH]cnc3[C@@H]2c2cc3ccc(C(F)(F)F)cn3n2)o1 [Example 2421, (R)-(5-(2-fluoropropan-2-yl)-1,3,4-oxadiazol-2-yl)(4-(6-(trifluoromethyl)pyrazolo[1,5-a]pyridin-2-yl)-6,7-dihydro-1H-imidazo[4,5-c]pyridin-5(4H)-yl)methanone]"
5,1000 to 5000,"O=C(c1cnn2cc(-c3ccccn3)ccc12)N1CCc2[nH]cnc2[C@H]1c1cc2cccc(C(F)(F)F)n2n1 [Example 2452, (S)-(6-(pyridin-2-yl)pyrazolo[1,5-a]pyridin-3-yl)(4-(7-(trifluoromethyl)pyrazolo[1,5-a]pyridin-2-yl)-6,7-dihydro-1H-imidazo[4,5-c]pyridin-5(4H)-yl)methanone]"
6,< 500,Cc1cccn2nc([C@@H]3c4nc[nH]c4CCN3C(=O)c3oc(-c4cnn(C)c4)nc3C3CC3)cc12 [Example 2074]
7,1000 to 5000,"CN(C)CCc1ccc2c(C(=O)N3CCc4[nH]cnc4[C@H]3c3cc4c(C(F)(F)F)cccn4n3)cnn2c1 [Example 2476, (S)-(6-(2-(dimethylamino)ethyl)pyrazolo[1,5-a]pyridin-3-yl)(4-(4-(trifluoromethyl)pyrazolo[1,5-a]pyridin-2-yl)-6,7-dihydro-1H-imidazo[4,5-c]pyridin-5(4H)-yl)methanone]"
8,< 500,"Cc1ncccc1-c1nnc(N2CCc3[nH]cnc3[C@H]2c2cc3c(Cl)cccn3n2)o1 [Example 2236, (S)-2-(4-(4-chloropyrazolo[1,5-a]pyridin-2-yl)-1,4,6,7-tetrahydro-5H-imidazo[4,5-c]pyridin-5-yl)-5-(2-methylpyridin-3-yl)-1,3,4-oxadiazole]"

# Same assay, conditions: A375 cells expressing human R408W PAH; 24 hrs compound incubation; 13C-Tyrosine by LC-MS; average where tested multiple times; read-out: AC50
row,AC50 [nM],Compound
1,500 to 1000,"COCCc1ccc2c(C(=O)N3CCc4[nH]cnc4[C@H]3c3cc4c(F)cccn4n3)cnn2c1 [Example 1796, (S)-(4-(4-fluoropyrazolo[1,5-a]pyridin-2-yl)-6,7-dihydro-1H-imidazo[4,5-c]pyridin-5(4H)-yl)(6-(2-methoxyethyl)pyrazolo[1,5-a]pyridin-3-yl)methanone]"
2,< 500,"O=C(c1oc(C2(O)CC2)nc1C(F)F)N1CCc2[nH]cnc2[C@H]1c1cc2c(F)cccn2n1 [Example 1234, (S)-(4-(difluoromethyl)-2-(1-hydroxycyclopropyl)oxazol-5-yl)(4-(4-fluoropyrazolo[1,5-a]pyridin-2-yl)-6,7-dihydro-1H-imidazo[4,5-c]pyridin-5(4H)-yl)methanone]"
3,500 to 1000,"O=C(c1nnc(-c2cnn(C(F)F)c2)o1)N1CCc2[nH]cnc2[C@H]1c1cc2c(OC(F)F)cccn2n1 [Example 1660, (S)-(4-(4-(difluoromethoxy)pyrazolo[1,5-a]pyridin-2-yl)-6,7-dihydro-1H-imidazo[4,5-c]pyridin-5(4H)-yl)(5-(1-(difluoromethyl)-1H-pyrazol-4-yl)-1,3,4-oxadiazol-2-yl)methanone]"
4,> 5000,"COc1ccc(-c2nnc(C(=O)N3CCc4[nH]cnc4[C@@H]3c3cc4cccc(C)n4n3)o2)nc1 [Example 911, (R)-(5-(5-methoxypyridin-2-yl)-1,3,4-oxadiazol-2-yl)(4-(7-methylpyrazolo[1,5-a]pyridin-2-yl)-6,7-dihydro-1H-imidazo[4,5-c]pyridin-5(4H)-yl)methanone]"
5,< 500,"FC(F)c1nnc(N2CCc3[nH]cnc3[C@H]2c2cc3c(C(F)F)cccn3n2)o1 [Example 1733, (S)-2-(difluoromethyl)-5-(4-(4-(difluoromethyl)pyrazolo[1,5-a]pyridin-2-yl)-6,7-dihydro-1H-imidazo[4,5-c]pyridin-5(4H)-yl)-1,3,4-oxadiazole]"
6,500 to 1000,"COc1ccc(-c2nnc(C(=O)N3CCc4[nH]cnc4[C@H]3c3cc4cccc(Cl)n4n3)o2)nc1 [Example 1097, (S)-(4-(7-chloropyrazolo[1,5-a]pyridin-2-yl)-6,7-dihydro-1H-imidazo[4,5-c]pyridin-5(4H)-yl)(5-(5-methoxypyridin-2-yl)-1,3,4-oxadiazol-2-yl)methanone]"
7,< 500,"O=C(c1nnc(C2CC2)o1)N1CCc2[nH]cnc2[C@H]1c1cc2c(Cl)cccn2n1 [Example 1094, (S)-(4-(4-chloropyrazolo[1,5-a]pyridin-2-yl)-6,7-dihydro-1H-imidazo[4,5-c]pyridin-5(4H)-yl)(5-cyclopropyl-1,3,4-oxadiazol-2-yl)methanone]"
8,500 to 1000,"Cn1ccc(-c2nnc(C(=O)N3CCc4[nH]cnc4[C@H]3c3cc4cccc(C(F)F)n4n3)o2)n1 [Example 1438, (S)-(4-(7-(difluoromethyl)pyrazolo[1,5-a]pyridin-2-yl)-6,7-dihydro-1H-imidazo[4,5-c]pyridin-5(4H)-yl)(5-(1-methyl-1H-pyrazol-3-yl)-1,3,4-oxadiazol-2-yl)methanone]"
9,< 500,"Cc1cccc(-c2nnc(C(=O)N3CCc4[nH]cnc4[C@H]3c3cc4cccc(Cl)n4n3)o2)n1 [Example 1396, (S)-(4-(7-chloropyrazolo[1,5-a]pyridin-2-yl)-6,7-dihydro-1H-imidazo[4,5-c]pyridin-5(4H)-yl)(5-(6-methylpyridin-2-yl)-1,3,4-oxadiazol-2-yl)methanone]"
10,< 500,"O=C(c1nnc(-c2ccccn2)o1)N1CCc2[nH]cnc2[C@H]1c1cc2c(F)cccn2n1 [Example 733, (S)-(4-(4-fluoropyrazolo[1,5-a]pyridin-2-yl)-6,7-dihydro-1H-imidazo[4,5-c]pyridin-5(4H)-yl)(5-(pyridin-2-yl)-1,3,4-oxadiazol-2-yl)methanone]"
11,1000 to 5000,"CC(C)(O)c1nc(C2CC2)c(C(=O)N2CCc3[nH]cnc3[C@@H]2c2cc3ccccn3n2)o1 [Example 625, (R)-(4-cyclopropyl-2-(2-hydroxypropan-2-yl)oxazol-5-yl)(4-(pyrazolo[1,5-a]pyridin-2-yl)-6,7-dihydro-1H-imidazo[4,5-c]pyridin-5(4H)-yl)methanone]"
12,< 500,"Cc1c(-c2nnc(C(=O)N3CCc4[nH]cnc4[C@H]3c3cc4ccccn4n3)o2)cnn1C [Example 972, (S)-(5-(1,5-dimethyl-1H-pyrazol-4-yl)-1,3,4-oxadiazol-2-yl)(4-(pyrazolo[1,5-a]pyridin-2-yl)-6,7-dihydro-1H-imidazo[4,5-c)pyridin-5(4H)-yl)methanone]"
13,< 500,"Cc1cccn2nc([C@H]3c4nc[nH]c4CCN3C(=O)c3oc(C(C)(C)F)nc3C(F)F)cc12 [Example 1217, (R)-(4-(difluoromethyl)-2-(2-fluoropropan-2-yl)oxazol-5-yl)(4-(4-methylpyrazolo[1,5-a]pyridin-2-yl)-6,7-dihydro-1H-imidazo[4,5-c]pyridin-5(4H)-yl)methanone]"
14,500 to 1000,"O=C(c1nnc(C2CC2)o1)N1CCc2[nH]cnc2[C@H]1c1cc2cccc(C(F)F)n2n1 [Example 1390, (S)-(5-cyclopropyl-1,3,4-oxadiazol-2-yl)(4-(7-(difluoromethyl)pyrazolo[1,5-a]pyridin-2-yl)-6,7-dihydro-1H-imidazo[4,5-c]pyridin-5(4H)-yl)methanone]"
